Measured values taken from ChEMBL document CHEMBL1156643, “Kempopeptins A and B, serine protease inhibitors with different selectivity profiles from a marine cyanobacterium, Lyngbya sp” (J Nat Prod, 2008).

Key:
[1] = Inhibition of pig pancreatic trypsin; parameters: species or system Sus scrofa
[2] = Inhibition of bovine alpha chymotrypsin; parameters: species or system Bos taurus
[3] = target: Pancreatic elastase (Sus scrofa, UniProt P08419+P00772); experiment: Inhibition of pig pancreatic elastase; assay type: protein assay

Row | Structure (SMILES) | IC50 [1] [µM] | IC50 [2] [µM] | IC50 [3] [µM]
1 | CC(=O)N1CCC[C@H]1C(=O)N[C@H](C(=O)N[C@@H]1C(=O)N[C@@H](CC(C)C)C(=O)N[C@H]2CC[C@@H](O)N(C2=O)[C@@H](Cc2ccccc2)C(=O)N(C)[C@@H](Cc2ccc(O)cc2)C(=O)N[C@@H](C(C)C)C(=O)O[C@@H]1C)[C@@H](C)O [KEMPOPEPTIN A] | > 67 | 0.32 | 2.6
2 | CCCC(=O)N[C@H](C(=O)N[C@@H]1C(=O)N[C@@H](CCCCN)C(=O)N[C@H]2CC[C@@H](O)N(C2=O)[C@@H]([C@@H](C)CC)C(=O)N(C)[C@@H](Cc2ccc(OC)c(Br)c2)C(=O)N[C@@H](C(C)C)C(=O)O[C@@H]1C)C(C)C [KEMPOPEPTIN B] | 8.4 | > 67 | > 67
3 | C/C=C1\NC(=O)[C@@H](NC(=O)[C@H](CCC(N)=O)NC(=O)CCCCC)[C@@H](C)OC(=O)[C@H](C(C)C)NC(=O)[C@H](Cc2ccc(O)cc2)N(C)C(=O)[C@H](Cc2ccccc2)N2C(=O)[C@H](CC[C@H]2O)NC1=O [LYNGBYASTATIN 7] | > 30 |  | 
4 | C/C=C1\NC(=O)[C@@H](NC(=O)[C@H](CCC(N)=O)NC(=O)CCC)[C@@H](C)OC(=O)[C@H](C(C)C)NC(=O)[C@H](Cc2ccc(O)cc2)N(C)C(=O)[C@H](Cc2ccccc2)N2C(=O)[C@H](CC[C@H]2O)NC1=O [SOMAMIDE B] | > 30 | 0.0095 | 4.2
